Data as given in publication PMC10145360, “Antiplatelet Aggregation Properties of Cirsilineol: A Novel Inhibitor of Blood Coagulation Factor Xa” (Pharmaceuticals, 2023).

Tests used:
[1] = system: FeCl3-induced carotid artery thrombosis; experiment: FeCl3-induced carotid artery thrombosis model; format: in vivo, mouse; conditions: mice
Procedure: A mouse model of FeCl3-induced thrombosis was created and used. Male C57BL/6 mice were starved for the entire night before receiving intravenous injections of the relevant drug in 0.2 mL of DMSO and were allowed to sleep. The carotid artery of the animal was exposed. The adventitial surface was covered with a cotton thread (200 μm in diameter) soaked in FeCl3 solution (0.25 M) for 5 min. The wound was flushed with saline solution once the thread had been removed. […] We measured the size and rate of thrombus formation, and we graded our results as follows: no thrombus or small thrombus (75–50 μm), medium thrombus (150–100 μm), massive thrombus (300–200 μm), and more than three thrombi. It was also noted how long it took for an extensive thrombus to obstruct the carotid artery following endothelial damage caused by FeCl3.

Plasmin = target: T1, Plasmin (Homo sapiens, UniProt P00747); experiment: Inhibitory constant, chromogenic substrate assay; format: biochemical
T1 construct: S-2251 for plasmin; purchased Haematologic Technologies (Essex Junction, VT, USA)
Procedure: (§1) Ki values were calculated based on chromogenic substrate experiments. CSL was employed in each assay at a minimum of seven concentrations in duplicate to obtain an inhibition curve. A total of 50 μL of substrate was combined with 25 μL of each chemical solution, inhibitor solution, or blank buffer. Before the plate was allocated into the Labsystems IEMS microtiter plate reader (Cergy Pontoise, France), 25 μL of the enzyme solution was mixed. The plate was allowed for 1 h at 37 °C before analysis. We continuously observed the formation of p-nitroaniline produced when the substrate was hydrolyzed using spectrophotometry at 405 nm. The maximum initial reaction rates were computed as the millioptical density per minute. A Dixon plot of 1/Vmax versus inhibitor concentration was used to fit the curve and determine the Ki values.

Protein Ca = target: T2, Protein Ca (Homo sapiens, UniProt P04070); experiment: Inhibitory constant, chromogenic substrate assay; format: biochemical
T2 construct: purchased Haematologic Technologies (Essex Junction, VT, USA)
Procedure: as §1

tPA = target: T3, tPA (Homo sapiens, UniProt P00750); experiment: Inhibitory constant, chromogenic substrate assay; format: biochemical
T3 construct: purchased Haematologic Technologies (Essex Junction, VT, USA)
Procedure: as §1

α-Thrombin = target: T4, α-Thrombin (Homo sapiens, UniProt P00734); experiment: Inhibitory constant, chromogenic substrate assay; format: biochemical
T4 construct: α-Thrombin; purchased Haematologic Technologies (Essex Junction, VT, USA)
Procedure: as §1

Trypsin = experiment: Inhibitory constant, chromogenic substrate assay; format: biochemical, human
Procedure: as §1

[2] = system: myristoylated alanine-rich C kinase substrate (MARCKS) in human platelets; experiment: MARCKS phosphorylation (PKC activation), western blotting; format: cell-based; conditions: CSL 10 or 20 μM; ADP 10 μM or U46619 6 μM
Procedure: Figure 6 Effects of CSL on activation of protein kinase CPKC activation and mobilization of intracellular calcium. (A) Rinsed platelets were incubated with DMSO or CSL (10 or 20 μM) for 10 min at 37 °C, and stimulation of ADP (10 μM, left) or U46619 (6 μM, right) was given for 1 min. The phosphorylation level of MARCKS in the platelets was determined with western blotting. Representative images from each group are shown (n = 3). Densitometric intensities of each signaling pathway component normalized to β-actin or total protein. (B,C) Human platelets preloaded with Fura-2 were incubated with DMSO (D) or CSL with extracellular Ca^2+ (1 mM) for 10 min at 37 °C, and ADP ((B) 10 μM) or U46619 ((C) 6 μM) stimulation was given to induce an increase in [Ca^2+]i. Data are shown as mean values ± SD of five independent experiments. * p < 0.05 vs. ADP (A,B) or U46619 (A,C) alone. D = 0.2% DMSO, used as the vehicle control.
SDS-PAGE was used to isolate identical amounts of protein from the […] extracts, and the protein was then electrotransferred onto an immobilon membrane (Millipore, Billerica, MA, USA). The membranes underwent blocking, anti-phospho-MARCKS (Santa Cruz, CA, USA) incubation for 1.5 h at room temperature, HRP-conjugated secondary antibody incubation, and ECL detection. […]

T1 sequence (P00747 581-810 limits assumed): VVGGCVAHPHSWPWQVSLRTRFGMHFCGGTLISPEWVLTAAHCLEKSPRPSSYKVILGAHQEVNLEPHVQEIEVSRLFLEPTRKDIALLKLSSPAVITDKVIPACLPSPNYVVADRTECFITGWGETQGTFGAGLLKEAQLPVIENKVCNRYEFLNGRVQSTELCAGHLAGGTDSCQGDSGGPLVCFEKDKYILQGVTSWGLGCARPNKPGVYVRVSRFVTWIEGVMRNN
T1 sequence (P00747 97-580 partner limits assumed): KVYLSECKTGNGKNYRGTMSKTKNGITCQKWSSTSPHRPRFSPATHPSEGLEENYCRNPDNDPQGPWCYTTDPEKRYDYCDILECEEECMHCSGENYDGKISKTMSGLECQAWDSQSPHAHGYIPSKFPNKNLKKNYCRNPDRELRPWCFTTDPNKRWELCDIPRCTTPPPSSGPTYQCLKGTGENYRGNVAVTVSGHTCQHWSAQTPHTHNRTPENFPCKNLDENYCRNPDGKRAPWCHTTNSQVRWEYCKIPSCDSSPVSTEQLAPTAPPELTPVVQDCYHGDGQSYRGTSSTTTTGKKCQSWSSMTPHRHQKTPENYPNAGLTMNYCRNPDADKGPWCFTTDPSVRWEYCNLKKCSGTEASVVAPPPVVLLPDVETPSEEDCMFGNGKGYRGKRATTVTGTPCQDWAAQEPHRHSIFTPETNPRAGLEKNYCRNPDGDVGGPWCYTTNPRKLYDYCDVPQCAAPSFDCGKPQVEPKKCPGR
T3 sequence (P00750 36-562): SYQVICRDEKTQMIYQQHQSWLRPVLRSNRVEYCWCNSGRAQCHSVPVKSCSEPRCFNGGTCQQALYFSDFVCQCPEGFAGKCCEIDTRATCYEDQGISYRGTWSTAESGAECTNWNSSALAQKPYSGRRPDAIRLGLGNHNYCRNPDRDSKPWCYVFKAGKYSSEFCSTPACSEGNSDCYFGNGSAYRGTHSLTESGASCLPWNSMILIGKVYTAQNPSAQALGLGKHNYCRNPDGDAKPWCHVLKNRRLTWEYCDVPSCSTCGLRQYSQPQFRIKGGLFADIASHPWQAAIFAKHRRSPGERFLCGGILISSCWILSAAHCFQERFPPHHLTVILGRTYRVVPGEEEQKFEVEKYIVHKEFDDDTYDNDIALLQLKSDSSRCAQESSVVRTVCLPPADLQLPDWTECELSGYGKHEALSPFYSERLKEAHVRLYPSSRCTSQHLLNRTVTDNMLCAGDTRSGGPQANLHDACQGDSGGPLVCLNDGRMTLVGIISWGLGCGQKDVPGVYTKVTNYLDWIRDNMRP
T2 sequence (P04070 212-450 limits assumed): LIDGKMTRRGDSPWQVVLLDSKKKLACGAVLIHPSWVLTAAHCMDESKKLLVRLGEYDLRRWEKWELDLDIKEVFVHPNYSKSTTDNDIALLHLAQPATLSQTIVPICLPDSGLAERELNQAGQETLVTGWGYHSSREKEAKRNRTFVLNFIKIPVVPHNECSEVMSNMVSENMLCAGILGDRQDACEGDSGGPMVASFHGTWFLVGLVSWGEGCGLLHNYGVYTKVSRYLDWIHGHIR
T2 sequence (P04070 43-197 partner limits assumed): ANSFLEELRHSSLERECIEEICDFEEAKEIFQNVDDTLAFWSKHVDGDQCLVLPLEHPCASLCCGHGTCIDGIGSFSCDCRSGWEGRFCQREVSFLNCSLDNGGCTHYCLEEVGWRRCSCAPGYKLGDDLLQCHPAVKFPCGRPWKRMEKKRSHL

COc1cc(-c2cc(=O)c3c(O)c(OC)c(OC)cc3o2)ccc1O [CSL, 4,5-dihydroxy-3,6,7-trimethoxyflavone]
Scored thrombus formation ([1]; 0.13 mg/kg intravenous): 3.7 ± 0.2
Time to Large Thrombus Formation ([1]; 0.13 mg/kg intravenous): 13.1 ± 1.1 min
Scored thrombus formation ([1]; 0.26 mg/kg intravenous): 2.7 ± 0.1
Time to Large Thrombus Formation ([1]; 0.26 mg/kg intravenous): 27.2 ± 2.1 min
Scored thrombus formation ([1]; 0.51 mg/kg intravenous): 1.8 ± 0.1
Time to Large Thrombus Formation ([1]; 0.51 mg/kg intravenous): 51.4 ± 3.1 min
Ki (Plasmin): > 300 µM
Ratio = Ki enzyme/Ki Factor Xa (Plasmin): >100
Ki (Protein Ca): > 300 µM
Ratio = Ki enzyme/Ki Factor Xa (Protein Ca): >100
Ki (tPA): > 300 µM
Ratio = Ki enzyme/Ki Factor Xa (tPA): >100
Ki (α-Thrombin): > 300 µM
Ratio = Ki enzyme/Ki Factor Xa (α-Thrombin): >100
Ki (Trypsin): > 300 µM
Ratio = Ki enzyme/Ki Factor Xa (Trypsin): >100
MARCKS phosphorylation in response to ADP and U46619 [2]: prevented MARCKS from becoming phosphorylated
